Results taken from patent US12173007B2, “Imidazopyridazine IL-17 inhibitor compounds” (Janssen Pharmaceutica NV, priority 2021, dated 2024).

Assays:
[1] = molecular target: IL-17A(FLAG-Tagged): IL-17RA(His-Tagged) binding (Homo sapiens, UniProt Q16552, K93Q); experiment: IL-17A(FLAG-tagged):IL-17RA(His-tagged) binding disruption Eu-HTRF assay, Protocol 1; details: FLAG-IL-17A 2.5 nM; average if tested more than once
From the text: IL-17A(FLAG-Tagged): IL-17RA(His-Tagged) Binding Disruption Eu-HTRF Assay
An antibody directed against the FLAG tag of IL-17A (SEQ ID NO: 1) is labeled with the HTRF donor chromophore (Europium-cryptate). IL-17A is present as a dimer that is “locked into” this quaternary structure due to the formation of loop-spanning […] disulfide bridges. The construct of IL-17RA used in the assay excludes the […] portion of the receptor and is fused to a C-terminal 10×His tag (SEQ ID NO:2). An antibody directed against the His tag of the IL-17RA chimera is labeled with the HTRF acceptor chromophore (“D2”). The fluorescence-resonance energy transfer (FRET) depends on the vicinity of the donor chromophore to the acceptor, and interruption of the binding between the IL-17A and IL-17RA causes the reduction/loss of FRET. Therefore, this assay allows to evaluate the compound effect on the binding IL-17A and IL-17RA by monitoring the fluorescence intensity of donor vs acceptor. The assay was run using either Protocol 1 or Protocol 2 as described below.
Protocol 1. 40 nl of 2-fold serial diluted compound solution for total 22 dilution points is added into each well of a 1536-well, white, low-volume, non-binding plate (Greiner #782904), then 2 μl of FLAG tagged IL-17A at 2×final concentration (2.5 nM) in solution of PBS+0.01% Triton-X100 is added to each well. The assay plate is briefly centrifuged then incubated for 1 h at rt. A mixed solution is prepared containing 2×5 nM 10HIS×IL-17RA, 2×2.5 nM Eu-anti-FLAG (CISBIO), 2×5 nM D2-anti-HIS (CISBIO) in PBS+0.01% Triton-X100+200 mM Potassium Fluoride (Sigma 60238) and 2 μl of mix is added to each well of the assay plate. The plate is briefly centrifuged then incubated for 2 h at rt. The HTRF intensities at the wavelength of donor (620 nm) and acceptor (665 nm) are measured using BMG Pherastar. The ratio between intensities at two wavelengths is calculated and plotted against the compound concentration and the data is fitted to a one-site competition model to yield IC50 of the compound.

[2] = system: IL-17A-induced G-CSF production in human normal keratinocyte (NHK); experiment: NHK assay: IL-17A-induced G-CSF production in normal human keratinocytes; assay type: cell-based; details: Homo sapiens, Keratinocyte, 24 h, IL-17A 5 ng/mL, G-CSF by HTRF, average if tested more than once
Method in brief: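 IC50 derives from G-CSF in supernatants, quantified by HTRF from a standard curve, with CellTiter-Glo viability compared to DMSO control. Before a 24 h, 37°C culture of normal human keratinocytes at 3000–4000 cells/well, compound dilutions were preincubated 1 h at rt with human IL-17A (5 ng/mL final), with 0.2% DMSO and 5% FBS.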

UniProt Q16552, sequence (Q16552 with tags, fused parts or gaps K93Q): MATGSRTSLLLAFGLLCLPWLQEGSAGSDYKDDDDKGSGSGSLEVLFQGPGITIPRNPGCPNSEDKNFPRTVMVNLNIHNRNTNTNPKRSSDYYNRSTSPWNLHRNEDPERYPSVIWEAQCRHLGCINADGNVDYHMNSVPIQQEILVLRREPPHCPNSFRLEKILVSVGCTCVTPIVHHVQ

SMILES | IC50 [1] | IC50 [2]
O=C(N[C@H](c1cn2ncc([C@@H](C3CC3)N3CC(F)(F)CNC3=O)cc2n1)C1CCC(F)(F)CC1)c1nonc1C1CC1 [Example 7, 4-Cyclopropyl-N—((S)-(7-((R)-cyclopropyl(5,5-difluoro-2-oxotetrahydropyrimidin-1(2H)-yl)methyl)imidazo[1,2-b]pyridazin-2-yl)(4,4-difluorocyclohexyl)methyl)-1,2,5-oxadiazole-3-carboxamide] | < 0.05 µM | < 0.05 µM
Cc1nonc1C(=O)N[C@H](c1cn2ncc([C@@H](C3CC3)N3CC(F)(F)CNC3=O)cc2n1)C1CCC(F)(F)CC1 [Example 8, N—((S)-(7-((R)-Cyclopropyl(5,5-difluoro-2-oxotetrahydropyrimidin-1(2H)-yl)methyl)imidazo[1,2-b]pyridazin-2-yl)(4,4-difluorocyclohexyl)methyl)-4-methyl-1,2,5-oxadiazole-3-carboxamide] | < 0.05 µM | 0.05 to 0.1 µM
[2H]C([2H])([2H])C([2H])([2H])n1nccc1C(=O)N[C@H](c1cn2ncc([C@@H](C3CC3)N3CC(F)(F)CNC3=O)cc2n1)C1CCC(F)(F)CC1 [Example 9, N—((S)-(7-((R)-Cyclopropyl(5,5-difluoro-2-oxotetrahydropyrimidin-1(2H)-yl)methyl)imidazo[1,2-b]pyridazin-2-yl)(4,4-difluorocyclohexyl)methyl)-1-(ethyl-d5)-1H-pyrazole-5-carboxamide] | < 0.05 µM | < 0.05 µM
CC(C)n1nccc1C(=O)N[C@H](c1cn2ncc([C@@H](C3CC3)N3CC(F)(F)CNC3=O)cc2n1)C1CCC(F)(F)CC1 [Example 10, N—((S)-(7-((R)-Cyclopropyl(5,5-difluoro-2-oxotetrahydropyrimidin-1(2H)-yl)methyl)imidazo[1,2-b]pyridazin-2-yl)(4,4-difluorocyclohexyl)methyl)-1-isopropyl-1H-pyrazole-5-carboxamide] | 0.05 to 0.1 µM | < 0.05 µM
COC[C@H](c1cnn2cc([C@@H](NC(=O)c3nonc3C)C3CCC(F)(F)CC3)nc2c1)N1CC(F)(F)CNC1=O [Example 12, N—((S)-(7-((S)-1-(5,5-Difluoro-2-oxotetrahydropyrimidin-1(2H)-yl)-2-methoxyethyl)imidazo[1,2-b]pyridazin-2-yl)(4,4-difluorocyclohexyl)methyl)-4-methyl-1,2,5-oxadiazole-3-carboxamide] | < 0.05 µM | < 0.05 µM
[2H]C([2H])([2H])C([2H])([2H])n1nccc1C(=O)N[C@H](c1cn2ncc([C@@H](COC)N3CC(F)(F)CNC3=O)cc2n1)C1CCC(F)(F)CC1 [Example 13, N—((S)-(7-((S)-1-(5,5-Difluoro-2-oxotetrahydropyrimidin-1(2H)-yl)-2-methoxyethyl)imidazo[1,2-b]pyridazin-2-yl)(4,4-difluorocyclohexyl)methyl)-1-(ethyl-d5)-1H-pyrazole-5-carboxamide] | 0.05 to 0.1 µM | < 0.05 µM
COC[C@H](c1cnn2cc([C@@H](NC(=O)c3ccnn3C(C)C)C3CCC(F)(F)CC3)nc2c1)N1CC(F)(F)CNC1=O [Example 14, N—((S)-(7-((S)-1-(5,5-Difluoro-2-oxotetrahydropyrimidin-1(2H)-yl)-2-methoxyethyl)imidazo[1,2-b]pyridazin-2-yl)(4,4-difluorocyclohexyl)methyl)-1-isopropyl-1H-pyrazole-5-carboxamide] | 0.05 to 0.1 µM | < 0.05 µM
CC(C)(OC[C@H](NC(=O)c1nonc1C1CC1)c1cn2ncc(CN3CC(F)(F)CNC3=O)cc2n1)C(F)(F)F [Example 17, (R)-4-Cyclopropyl-N-(1-(7-((5,5-difluoro-2-oxotetrahydropyrimidin-1(2H)-yl)methyl)imidazo[1,2-b]pyridazin-2-yl)-2-((1,1,1-trifluoro-2-methylpropan-2-yl)oxy)ethyl)-1,2,5-oxadiazole-3-carboxamide] | < 0.05 µM | < 0.05 µM
O=C(N[C@H](c1cn2ncc(CN3CCCNC3=O)cc2n1)C1CCC(F)(F)CC1)c1nonc1C1CC1 [Example 18, (S)-4-Cyclopropyl-N-((4,4-difluorocyclohexyl)(7-((2-oxotetrahydropyrimidin-1(2H)-yl)methyl)imidazo[1,2-b]pyridazin-2-yl)methyl)-1,2,5-oxadiazole-3-carboxamide] | > 0.1 µM | > 0.1 µM
CC(C)n1nccc1C(=O)N[C@H](c1cn2ncc(CN3CCCNC3=O)cc2n1)C1CCC(F)(F)CC1 [Example 19, (S)—N-((4,4-Difluorocyclohexyl)(7-((2-oxotetrahydropyrimidin-1(2H)-yl)methyl)imidazo[1,2-b]pyridazin-2-yl)methyl)-1-isopropyl-1H-pyrazole-5-carboxamide] | > 0.1 µM | > 0.1 µM
O=C(N[C@H](c1cn2ncc(CN3CC(F)(F)CNC3=O)cc2n1)C1CCC(F)(F)CC1)c1nonc1C1CC1 [Example 20, (S)-4-Cyclopropyl-N-((7-((5,5-difluoro-2-oxotetrahydropyrimidin-1(2H)-yl)methyl)imidazo[1,2-b]pyridazin-2-yl)(4,4-difluorocyclohexyl)methyl)-1,2,5-oxadiazole-3-carboxamide] | < 0.05 µM | < 0.05 µM
CC(C)n1nccc1C(=O)N[C@H](c1cn2ncc(CN3CC(F)(F)CNC3=O)cc2n1)C1CCC(F)(F)CC1 [Example 21, (S)—N-((7-((5,5-Difluoro-2-oxotetrahydropyrimidin-1(2H)-yl)methyl)imidazo[1,2-b]pyridazin-2-yl)(4,4-difluorocyclohexyl)methyl)-1-isopropyl-1H-pyrazole-5-carboxamide] | > 0.1 µM | < 0.05 µM
O=C(N[C@H](c1cn2ncc(CN3CC(F)(F)CNC3=O)cc2n1)C1CCC(F)(F)CC1)c1conc1COC(F)F [Example 22, (S)—N-((7-((5,5-Difluoro-2-oxotetrahydropyrimidin-1(2H)-yl)methyl)imidazo[1,2-b]pyridazin-2-yl)(4,4-difluorocyclohexyl)methyl)-3-((difluoromethoxy)methyl)isoxazole-4-carboxamide] | 0.05 to 0.1 µM | 0.05 to 0.1 µM
CC(C)n1ncnc1C(=O)N[C@H](c1cn2ncc(CN3CC(F)(F)CNC3=O)cc2n1)C1CCC(F)(F)CC1 [Example 23, (S)—N-((7-((5,5-Difluoro-2-oxotetrahydropyrimidin-1(2H)-yl)methyl)imidazo[1,2-b]pyridazin-2-yl)(4,4-difluorocyclohexyl)methyl)-1-isopropyl-1H-1,2,4-triazole-5-carboxamide] | > 0.1 µM | > 0.1 µM
O=C(N[C@H](c1cn2ncc(CN3CC(F)(F)CNC3=O)cc2n1)C1CCC(F)(F)CC1)c1cnn(CC2CC2)n1 [Example 24, (S)-2-(Cyclopropylmethyl)-N-((7-((5,5-difluoro-2-oxotetrahydropyrimidin-1(2H)-yl)methyl)imidazo[1,2-b]pyridazin-2-yl)(4,4-difluorocyclohexyl)methyl)-2H-1,2,3-triazole-4-carboxamide] | > 0.1 µM | > 0.1 µM
[2H]C([2H])([2H])C([2H])([2H])n1nccc1C(=O)N[C@H](c1cn2ncc(CN3CC(F)(F)CNC3=O)cc2n1)C1CCC(F)(F)CC1 [Example 25, (S)—N-((7-((5,5-Difluoro-2-oxotetrahydropyrimidin-1(2H)-yl)methyl)imidazo[1,2-b]pyridazin-2-yl)(4,4-difluorocyclohexyl)methyl)-1-(ethyl-d5)-1H-pyrazole-5-carboxamide] | 0.05 to 0.1 µM | < 0.05 µM
O=C(N[C@H](c1cn2ncc(CN3CC(F)(F)CNC3=O)cc2n1)C1CCC(F)(F)CC1)c1nonc1OCC(F)F [Example 26, (S)—N-((7-((5,5-Difluoro-2-oxotetrahydropyrimidin-1(2H)-yl)methyl)imidazo[1,2-b]pyridazin-2-yl)(4,4-difluorocyclohexyl)methyl)-4-(2,2-difluoroethoxy)-1,2,5-oxadiazole-3-carboxamide] | < 0.05 µM | < 0.05 µM
O=C(N[C@H](c1cn2ncc(CN3CC(F)(F)CNC3=O)cc2n1)C1CCC(F)(F)CC1)c1cnn(CCC(F)(F)F)n1 [Example 27, (S)—N-((7-((5,5-Difluoro-2-oxotetrahydropyrimidin-1(2H)-yl)methyl)imidazo[1,2-b]pyridazin-2-yl)(4,4-difluorocyclohexyl)methyl)-2-(3,3,3-trifluoropropyl)-2H-1,2,3-triazole-4-carboxamide] | > 0.1 µM | > 0.1 µM
